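In this assay, cells in 96-well plates receive the compound at five concentrations for 48 hours. Endpoints are linearly interpolated between the surrounding concentrations. At the GI50, growth is halved.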 Activity calls are given as the source filed them. Cut-off read from the data, not from the text of the source: active = GI50 up to about 1.1 µM and inactive = higher.
Legend:
Experiment in all cases: inhibition of tumour cell growth, NCI panel, 48 h
786-0 = test system: 786-0
A498 = test system: A498
COLO 205 = test system: COLO 205
HCT-116 = test system: HCT-116
IGROV-1 = test system: IGROV-1
K562 = test system: K562
Malme-3M = test system: Malme-3M
NCI-H226 = test system: NCI-H226
NCI-H23 = test system: NCI-H23
OVCAR-8 = test system: OVCAR-8
SW-620 = test system: SW-620
U-251 = test system: U-251
UACC-257 = test system: UACC-257
KM12 = test system: KM12
NCI-H522 = test system: NCI-H522
SK-MEL-5 = test system: SK-MEL-5
SNB-75 = test system: SNB-75

Measured: GI50

CCCCn1c(-c2ccccc2)cs/c1=N\N=C1C=C(C(C)(C)C)C(=O)C(C(C)(C)C)=C1
inactive: 786-0 > 100 µM | A498 > 100 µM | COLO 205 > 100 µM | HCT-116 > 100 µM | IGROV-1 > 100 µM | K562 > 100 µM | Malme-3M > 100 µM | NCI-H226 > 100 µM | NCI-H23 > 100 µM | OVCAR-8 > 100 µM | SW-620 > 100 µM | U-251 > 100 µM | UACC-257 > 100 µM

O=c1[nH]c2cccccc-2c1-c1nc2ccccc2[nH]1
inactive: 786-0 18.2 µM | COLO 205 > 100 µM | HCT-116 19.8 µM | IGROV-1 32.7 µM | K562 34.5 µM | KM12 4.82 µM | Malme-3M 21.3 µM | NCI-H226 11.1 µM | NCI-H23 31.3 µM | NCI-H522 19.3 µM | OVCAR-8 26.5 µM | SK-MEL-5 18.7 µM | SNB-75 12.2 µM | SW-620 69.5 µM | U-251 21.8 µM | UACC-257 > 100 µM

COc1ccc(C2S/C(=C\c3cc(OC)c(OC)c(OC)c3)C(=O)N2NC(=O)Cc2ccccc2)cc1 (configuration not stated)
inactive: 786-0 > 100 µM | COLO 205 > 100 µM | HCT-116 89.9 µM | IGROV-1 > 100 µM | K562 > 100 µM | KM12 > 100 µM | Malme-3M > 100 µM | NCI-H226 > 100 µM | NCI-H23 > 100 µM | NCI-H522 > 100 µM | OVCAR-8 > 100 µM | SK-MEL-5 22.1 µM | SNB-75 67.9 µM | SW-620 > 100 µM | U-251 > 100 µM | UACC-257 76.6 µM

OCCN(CCO)c1cccc(N(CCO)CCO)n1
inactive: 786-0 > 100 µM | A498 > 100 µM | COLO 205 > 100 µM | HCT-116 > 100 µM | K562 > 100 µM | KM12 > 100 µM | NCI-H522 > 100 µM | OVCAR-8 > 100 µM | SK-MEL-5 > 100 µM | SNB-75 > 100 µM | SW-620 > 100 µM | U-251 > 100 µM | UACC-257 > 100 µM

CC(=O)N/C(=C\c1ccc(Cc2nc3c([nH]2)C(=O)c2ccccc2C3=O)cc1)c1nc2c([nH]1)C(=O)c1ccccc1C2=O
inactive: 786-0 > 100 µM | A498 > 100 µM | COLO 205 > 100 µM | HCT-116 > 100 µM | IGROV-1 > 100 µM | K562 > 100 µM | KM12 > 100 µM | Malme-3M > 100 µM | NCI-H226 > 100 µM | NCI-H23 > 100 µM | NCI-H522 > 100 µM | OVCAR-8 43.5 µM | SK-MEL-5 > 100 µM | SNB-75 86.3 µM | SW-620 > 100 µM | U-251 78.5 µM | UACC-257 > 100 µM

CC(C)(C)OC(=O)N1C2CCCC23O[C@@H]1c1cc2c(cc1C3=O)OCO2 (some centres not stated)
inactive: 786-0 34.5 µM | A498 > 10 µM | HCT-116 36.3 µM | IGROV-1 20 µM | K562 6.5 µM | KM12 14.4 µM | Malme-3M 25.6 µM | NCI-H226 81.1 µM | NCI-H23 24.9 µM | NCI-H522 8.89 µM | OVCAR-8 61.1 µM | SK-MEL-5 4.41 µM | SNB-75 12.6 µM | SW-620 22.4 µM | U-251 41.3 µM | UACC-257 52.8 µM

C=CCNC(=O)N(CCC)CCCCC(NC(C)=O)C(=O)NCc1ccccc1 (configuration not stated)
inactive: 786-0 > 100 µM | A498 > 100 µM | COLO 205 > 100 µM | IGROV-1 > 100 µM | K562 > 100 µM | KM12 > 100 µM | Malme-3M > 100 µM | NCI-H226 > 100 µM | NCI-H23 > 100 µM | NCI-H522 > 100 µM | OVCAR-8 > 100 µM | SK-MEL-5 > 100 µM | SNB-75 > 100 µM | SW-620 > 100 µM | U-251 > 100 µM | UACC-257 > 100 µM

CCOC(=O)c1cc2c(cn1)[nH]c1cccc(N)c12
inactive: 786-0 > 100 µM | COLO 205 > 100 µM | HCT-116 > 100 µM | IGROV-1 > 100 µM | K562 > 100 µM | KM12 > 100 µM | Malme-3M > 100 µM | NCI-H23 > 100 µM | NCI-H522 > 100 µM | OVCAR-8 > 100 µM | SK-MEL-5 > 100 µM | SNB-75 > 100 µM | SW-620 > 100 µM | U-251 > 100 µM | UACC-257 > 100 µM

CC(C)(C)C(=O)Cc1cc2c(cc1C(=O)O)S(=O)(=O)NC(C(C)(C)C)=C2
inactive: 786-0 > 100 µM | A498 > 100 µM | COLO 205 > 100 µM | HCT-116 > 100 µM | K562 > 100 µM | KM12 > 100 µM | Malme-3M > 100 µM | NCI-H226 > 100 µM | NCI-H23 > 100 µM | NCI-H522 > 100 µM | OVCAR-8 > 100 µM | SNB-75 > 100 µM | SW-620 > 100 µM | U-251 > 100 µM | UACC-257 > 100 µM

COc1ccc(Cc2nccc3cc(OC)c(OC)cc23)cc1
inactive: 786-0 > 100 µM | A498 42.2 µM | COLO 205 > 100 µM | HCT-116 57.4 µM | IGROV-1 95.1 µM | K562 48 µM | KM12 81.5 µM | Malme-3M > 100 µM | NCI-H23 37.2 µM | NCI-H522 37.8 µM | OVCAR-8 91.8 µM | SK-MEL-5 35.7 µM | SNB-75 33.1 µM | SW-620 > 100 µM | U-251 > 100 µM | UACC-257 16.4 µM

Nc1ccn(CCOC(c2ccccc2)P(=O)(O)O)c(=O)n1 (configuration not stated)
inactive: 786-0 > 100 µM | A498 > 100 µM | COLO 205 > 100 µM | HCT-116 > 100 µM | IGROV-1 > 100 µM | KM12 > 100 µM | Malme-3M > 100 µM | NCI-H226 > 100 µM | NCI-H23 > 100 µM | NCI-H522 > 100 µM | OVCAR-8 > 100 µM | SK-MEL-5 > 100 µM | SNB-75 12.2 µM | SW-620 > 100 µM | U-251 > 100 µM | UACC-257 > 100 µM

C=CCN(N=O)C(=O)NCCCC(NC(C)=O)C(=O)NCc1ccccc1 (configuration not stated)
inactive: 786-0 > 100 µM | A498 > 100 µM | COLO 205 > 100 µM | IGROV-1 > 100 µM | K562 > 100 µM | KM12 > 100 µM | Malme-3M > 100 µM | NCI-H226 > 100 µM | NCI-H23 > 100 µM | NCI-H522 > 100 µM | OVCAR-8 > 100 µM | SK-MEL-5 > 100 µM | SNB-75 > 100 µM | SW-620 > 100 µM | U-251 > 100 µM | UACC-257 > 100 µM

NC(=O)c1csc(C2OC(COP(=O)(O)CP(=O)(O)OCC3OC(n4cnc5c(N)ncnc54)C(O)C3O)C(O)C2O)n1 (configuration not stated)
inactive: 786-0 > 100 µM | A498 > 100 µM | COLO 205 91.2 µM | IGROV-1 > 100 µM | K562 55.3 µM | KM12 > 100 µM | Malme-3M > 100 µM | NCI-H226 > 100 µM | NCI-H23 > 100 µM | NCI-H522 68.1 µM | OVCAR-8 > 100 µM | SK-MEL-5 > 100 µM | SNB-75 > 100 µM | SW-620 > 100 µM | U-251 > 100 µM | UACC-257 > 100 µM

CC1(C)N=C(Oc2ccccc2)n2nccc2N1
inactive: 786-0 59.4 µM | A498 > 100 µM | COLO 205 87.1 µM | HCT-116 51.9 µM | IGROV-1 > 100 µM | K562 82.8 µM | KM12 > 100 µM | Malme-3M > 100 µM | NCI-H226 > 100 µM | NCI-H23 > 100 µM | NCI-H522 40.9 µM | SK-MEL-5 > 100 µM | SNB-75 > 100 µM | SW-620 > 100 µM | U-251 > 100 µM | UACC-257 > 100 µM

Cc1cccc2c(O)cc(=O)oc12
inactive: 786-0 > 100 µM | A498 > 100 µM | HCT-116 > 100 µM | IGROV-1 > 100 µM | K562 > 100 µM | KM12 > 100 µM | Malme-3M > 100 µM | NCI-H226 > 100 µM | NCI-H23 > 100 µM | OVCAR-8 > 100 µM | SNB-75 > 100 µM | SW-620 > 100 µM | U-251 > 100 µM | UACC-257 > 100 µM

CCCCCCCCCCCCCCCC[N+](C)(C)Cc1ccc(C[N+](C)(C)CCCCCCCCCCCCCCCC)cc1
inactive: 786-0 2.5 µM | A498 > 100 µM | COLO 205 2.7 µM | HCT-116 2.59 µM | IGROV-1 2.43 µM | K562 2.06 µM | KM12 2.56 µM | NCI-H23 1.88 µM | NCI-H522 2.58 µM | OVCAR-8 2.04 µM | SK-MEL-5 6.12 µM | SNB-75 1.94 µM | SW-620 2.99 µM | U-251 1.96 µM | UACC-257 3.4 µM

CCn1c(=O)nc2n(-c3ccccc3)c3ccccc3nc-2c1=O
inactive: 786-0 27.9 µM | A498 47.4 µM | COLO 205 3.85 µM | IGROV-1 22.4 µM | K562 17.9 µM | KM12 31.3 µM | Malme-3M 16.3 µM | NCI-H226 20 µM | NCI-H23 25.4 µM | NCI-H522 26.9 µM | OVCAR-8 19.5 µM | SK-MEL-5 10.4 µM | SNB-75 82.8 µM | SW-620 14.4 µM | U-251 17.5 µM | UACC-257 16.7 µM
